The text below walks through data of publication PMC11851430, “Workflow for E3 Ligase Ligand Validation for PROTAC Development” (ACS Chemical Biology, 2025).

Like-named read-outs stand apart in the source and are kept apart here.

In test [1] the test system is kinase expression levels in Jurkat cells. Put plainly: Label-free quantitative proteomics of kinase parent inhibitors. Format: cell-based, human. The following applies: 6 h. As to the method:
CO2. After incubation, the BRET signals were measured by a PHERAstar plate reader (BMG Labtech) following the same procedure as intact NanoBRET® measurement. Competitive displacement data were then normalized to controls and were plotted using GraphPad Prism 9 software employing a normalized 3-parameter curve fit with the following equation: […]
The effects of the compounds on cell viability was determined using the CellTiter-Glo® 2.0 Cell Viability Assay (Promega: G9241) following manufacturer’s protocol. Ten µL of Jurkat cells at […]
After equilibration, PROTACs were titrated at various concentrations using an Echo acoustic […]
volume of CellTiter-Glo® 2.0 reagent (10 µL) was added to each well and cells were incubated for 10 minutes at room temperature. Filtered luminescence was measured on a PHERAstar plate reader (BMG Labtech) and data was evaluated using GraphPad Prism 9 software employing a normalized curve it with the following equation: Y=Bottom + (Top-Bottom)/(1+10(LogEC50-X) *HillSlope).
Sample preparation. Jurkat cells (ATCC © HTB-22) were cultured in RPMI (Thermo:
Cells were seeded in 6 well plates (Greiner:
50 µl of SDS Lysis Buffer (2% SDS, 50 mM TRIS pH 8.5, 10 mM TCEP, 40 mM CAA) was added to each sample. Cells were transferred into low binding reaction tubes (Eppendorf: […]
Protein yield was determined by […]

The next test concerns the target T1, ABL1 (Homo sapiens, UniProt P00519).
T1 construct: endogenous in cells; host or cells: Jurkat (Clone E6.1) cell lysate
The experiment in a line: Kinobeads selectivity profiling. Format: binding. The conditions noted are these: Jurkat lysate, dose series given in nM, read-out: Kd (apparent dissociation constant, corrected for protein depletion). How it is done:
Excitation and emission filters […]
curve. […] Measurements were
Kinobeads selectivity profiling of PROTACs
(Multiplexion, Heidelberg, Germany).
The cell lysate was ultracentrifuged and diluted
NaF, 1 mM DTT, protease inhibitors and phosphatase inhibitors to a final concentration of 5 mg/ml as determined by Bradford assay. For selectivity profiling of compounds the cell lysate (2.5 mg of total proteins per pulldown) was pre-incubated with increasing compound […]
µM) for 45 min at 4 °C in an end-over-end shaker. Subsequently, lysates were incubated with Kinobeads epsilon (17 µL settled beads) for 30 min at 4 °C. To assess the degree of protein depletion from the lysates by Kinobeads, the flow-through of the DMSO control was recovered […]
for a pulldown of pulldown experiment where the lysate was incubated a second time with fresh Kinobeads. Beads were washed in 3 steps with buffer containing 0.4%, 0.2% and no NP40.
Bound proteins were reduced with 50 mM DTT in 8 M Urea, 40 mM Tris-HCl pH 7.4 for 30 min at room temperature. After alkylation with 55 mM chloroacetamide (CAA), the Urea concentration was reduced to 1 – 2 M and proteins were digested using trypsin. Acidified peptides were desalted and concentrated using SepPak tC18 µEluation plates (Waters).
Samples were frozen, dried by vacuum centrifugation and stored at -20 °C.
LC-MS2 analysis. Peptides were measured on a Dionex Ultimate3000 nano HPLC coupled online to an Orbitrap Fusion Lumos (Thermo Fisher Scientific) mass spectrometer.
Peptides were dissolved in 0.1% formic acid and delivered to a trap column (ReproSil-pur C18-AQ, 5 μm, Dr. Maisch, 20 mm × 75 μm, self-packed) at a flow rate of 5 μL/min in LC solvent A (0.1 % formic acid).4 After 10 min of loading, peptides were transferred to an analytical column (ReproSil Gold C18-AQ, 3 μm, Dr. Maisch, 400 mm × 75 μm, self-packed) and separated using […]
acetonitrile) in LC solvent A.
The Orbitrap Fusion Lumos was operated as follows: positive polarity; spray voltage 2.1 kV, […]
A full-scan (MS1) was recorded from 360 to 1300 m/z with a resolution of 60,000 in the Orbitrap in profile mode. The MS1 AGC target was set to 4e5 and the maxIT was set to 50 ms, RF lens value was set to 50%. Based on the full scans, precursors were targeted for the MS/MS scans […]
intensity exceeded 2.5e4. The dynamic exclusion was set to 30 sec and exclude isotopes was switched on. The MS2 quadrupole isolation window was set to 1.7 m/z. Peptide fragmentation occurred in the ion routing multipole (IRM) by HCD with a fixed collision energy mode, the […]

Test [2] has as its target T2, AURKA (Homo sapiens, UniProt O14965).
T2 sequence (O14965 1-403): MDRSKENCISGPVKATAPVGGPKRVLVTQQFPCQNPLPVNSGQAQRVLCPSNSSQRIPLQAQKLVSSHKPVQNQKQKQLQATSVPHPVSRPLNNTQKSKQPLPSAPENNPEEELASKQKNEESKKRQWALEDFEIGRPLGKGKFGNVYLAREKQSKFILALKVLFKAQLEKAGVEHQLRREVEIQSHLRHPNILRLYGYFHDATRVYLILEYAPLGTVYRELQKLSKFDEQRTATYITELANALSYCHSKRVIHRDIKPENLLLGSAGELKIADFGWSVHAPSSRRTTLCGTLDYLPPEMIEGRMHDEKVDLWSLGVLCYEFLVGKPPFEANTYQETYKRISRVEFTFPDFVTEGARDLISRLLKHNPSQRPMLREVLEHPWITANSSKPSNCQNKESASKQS
The experiment in a line: cell-based. Also noted: species or system HEK293T; NanoBRET tracer displacement in permeabilized cells, NanoLuc fusion protein, Tracer K10. The following applies: permeabilized cells; read-out: AURKA permeabilized (IC50±sd)/µM.

Test [3] addresses T2, AURKA. Put plainly: cell-based. Also noted: species or system HEK293T; NanoBRET tracer displacement in intact cells, NanoLuc fusion protein, Tracer K10. The conditions noted are these: intact cells; read-out: AURKA intact (IC50±sd)/µM. From the text:
(§1) Compounds were pipetted at various concentrations using an Echo acoustic dispenser (Labcyte), immediately followed by Tracer K10 (Promega, Tracer DB ID: T000008) for AAK1 and Aurora A and VHL Tracer (Promega, Tracer DB ID: T000019) for VHL, at an optimum KD concentration chosen from TracerDB (tracerdb.org), respectively.

Test [4] deals with T3, full-length AAK1 (Homo sapiens, UniProt Q2M2I8). Put plainly: cell-based. Also noted: species or system HEK293T; NanoBRET tracer displacement in intact cells, NanoLuc fusion protein, Tracer K10. The conditions noted are these: intact cells; read-out: AAK1 intact (IC50±sd)/µM.
T3 sequence (Q2M2I8 whole entry, the tested form may be a part): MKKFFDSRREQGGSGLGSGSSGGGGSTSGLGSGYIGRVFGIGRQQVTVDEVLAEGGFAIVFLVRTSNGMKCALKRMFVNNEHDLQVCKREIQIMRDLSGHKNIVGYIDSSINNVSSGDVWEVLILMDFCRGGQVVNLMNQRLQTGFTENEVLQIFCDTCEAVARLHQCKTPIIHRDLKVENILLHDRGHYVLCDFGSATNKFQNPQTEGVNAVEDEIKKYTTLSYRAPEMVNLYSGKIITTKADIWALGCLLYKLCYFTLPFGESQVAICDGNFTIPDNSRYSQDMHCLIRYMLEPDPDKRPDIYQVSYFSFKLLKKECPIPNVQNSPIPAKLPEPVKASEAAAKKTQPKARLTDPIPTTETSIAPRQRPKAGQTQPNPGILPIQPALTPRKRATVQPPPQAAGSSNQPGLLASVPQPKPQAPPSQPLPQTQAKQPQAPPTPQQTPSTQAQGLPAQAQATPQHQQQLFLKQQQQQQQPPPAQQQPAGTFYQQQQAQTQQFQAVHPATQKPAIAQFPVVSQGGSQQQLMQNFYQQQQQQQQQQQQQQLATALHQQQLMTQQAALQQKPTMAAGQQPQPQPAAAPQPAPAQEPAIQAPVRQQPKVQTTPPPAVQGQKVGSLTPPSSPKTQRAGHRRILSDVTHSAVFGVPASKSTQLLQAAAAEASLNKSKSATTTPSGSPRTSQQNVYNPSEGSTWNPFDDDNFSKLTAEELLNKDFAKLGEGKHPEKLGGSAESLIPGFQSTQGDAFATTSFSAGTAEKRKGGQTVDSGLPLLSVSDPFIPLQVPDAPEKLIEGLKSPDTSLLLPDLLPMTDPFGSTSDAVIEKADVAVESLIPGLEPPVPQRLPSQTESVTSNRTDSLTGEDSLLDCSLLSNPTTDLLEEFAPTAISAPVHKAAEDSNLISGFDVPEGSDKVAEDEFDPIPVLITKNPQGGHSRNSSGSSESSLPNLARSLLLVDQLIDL
Source text: as §1

Test [5] addresses T3, full-length AAK1. The experiment in a line: cell-based. Details: species or system HEK293T; NanoBRET tracer displacement in permeabilized cells, NanoLuc fusion protein, Tracer K10. The conditions noted are these: permeabilized cells; read-out: AAK1 permeabilized (IC50±sd)/µM.

T1 sequence (P00519 whole entry): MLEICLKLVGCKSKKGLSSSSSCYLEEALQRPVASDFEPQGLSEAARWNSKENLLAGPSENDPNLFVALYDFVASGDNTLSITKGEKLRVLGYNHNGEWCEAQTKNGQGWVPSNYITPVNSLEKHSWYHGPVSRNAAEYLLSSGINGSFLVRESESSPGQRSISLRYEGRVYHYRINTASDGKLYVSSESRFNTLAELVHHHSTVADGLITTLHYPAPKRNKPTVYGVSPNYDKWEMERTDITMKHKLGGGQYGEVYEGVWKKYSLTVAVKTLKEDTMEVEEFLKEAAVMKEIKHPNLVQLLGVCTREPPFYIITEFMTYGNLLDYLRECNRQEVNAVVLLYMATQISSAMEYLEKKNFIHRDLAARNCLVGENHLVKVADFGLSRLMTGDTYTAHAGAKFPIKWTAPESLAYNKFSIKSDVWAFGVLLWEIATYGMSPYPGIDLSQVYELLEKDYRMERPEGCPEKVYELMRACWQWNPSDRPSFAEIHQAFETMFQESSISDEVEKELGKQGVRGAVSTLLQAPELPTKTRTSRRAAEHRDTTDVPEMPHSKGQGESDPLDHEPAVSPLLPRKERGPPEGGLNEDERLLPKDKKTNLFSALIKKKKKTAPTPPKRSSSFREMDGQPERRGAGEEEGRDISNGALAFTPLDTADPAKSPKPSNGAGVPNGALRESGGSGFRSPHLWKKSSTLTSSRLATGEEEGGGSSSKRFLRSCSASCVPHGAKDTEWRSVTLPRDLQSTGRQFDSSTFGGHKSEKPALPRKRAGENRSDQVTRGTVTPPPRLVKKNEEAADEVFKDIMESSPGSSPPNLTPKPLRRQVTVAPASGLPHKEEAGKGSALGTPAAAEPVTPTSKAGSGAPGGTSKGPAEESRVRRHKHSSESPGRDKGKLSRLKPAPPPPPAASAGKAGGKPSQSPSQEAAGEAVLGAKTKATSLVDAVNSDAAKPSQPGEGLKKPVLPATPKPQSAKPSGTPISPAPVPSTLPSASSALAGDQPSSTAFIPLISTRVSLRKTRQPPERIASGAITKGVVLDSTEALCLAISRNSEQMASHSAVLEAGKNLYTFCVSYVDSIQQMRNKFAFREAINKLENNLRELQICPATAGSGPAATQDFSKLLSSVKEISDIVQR

Consider `CCOC(=O)c1cc(Nc2cc(C3CC3)[nH]n2)nc(Nc2ccc(CC#N)cc2)n1` [compound 5], for which the “kinases with reduced protein levels” value in test [1] (0.25 μM) is “reduced protein levels of PLK1 and BUB1”; in test [1] (2.5 μM) it was “no additional kinases showed lower protein levels”.

Take `CC(C)(C)OC(=O)NCCOCCOCCOCCOCCC(=O)N1CCN(c2cc(Nc3cc(C4CC4)[nH]n3)nc(Nc3ccc(CC#N)cc3)n2)CC1` [4-L]: the Kd at ABL1 came out at 2200 nM.

Take `Cc1ncsc1-c1ccc(CNC(=O)[C@@H]2C[C@H](O)CN2C(=O)[C@@H](NC(=O)CCOCCOCCOCCN2CCN(c3cc(Nc4cc(C5CC5)[nH]n4)nc(Nc4ccc(CC#N)cc4)n3)CC2)C(C)(C)C)cc1` [4-a^neg]: the IC50 amounted to 1.89 ± 0.025 µM on AURKA [2], 5.04 ± 1.12 µM at AURKA [3], 0.108 ± 0.042 µM at full-length AAK1 [4] and 0.04 ± 0.001 µM on full-length AAK1 [5].

Take `CC(C)(C)OC(=O)NCCCOCCOCCOCCCNC(=O)c1cc(Nc2cc(C3CC3)[nH]n2)nc(Nc2ccc(CC#N)cc2)n1` [5-L]: the Kd on ABL1 is 4950 nM.
